# Results from PMC3175016 (Journal of applied toxicology : JAT, 2011).
# Marks after values point to notes of the source that are not given here.
# Tests used:
# Assay type in all cases: in vivo
# male Fischer 344 rats [1] = test: Serum alanine aminotransferase; details: 24 h; for serum alanine aminotransferase (ALT) activity: corn oil controls 36.0 ± 11.3
# male Fischer 344 rats [2] = test: Blood urea nitrogen; details: for Blood urea nitrogen: i.p. in corn oil, 24 h, mean ± SE, N = 3–4
# male Fischer 344 rats [3] = test: Urine volume after a single i.p. dose; details: for Twenty-four-hour urine volume: i.p. in corn oil, mean ± SE, N = 3–4
# male Fischer 344 rats [4] = test: Six-hour urine protein content after a single i.p. dose; details: i.p. in corn oil, mean ± SE, N = 3–4
# male Fischer 344 rats [5] = test: Liver weight 24 h after a single i.p. dose; details: i.p. in corn oil, mean ± SE, N = 3–4
# male Fischer 344 rats [6] = test: Kidney weight 24 h after a single i.p. dose; details: i.p. in corn oil, mean ± SE, N = 3–4
# male Fischer 344 rats [7] = test: Liver histology; details: 24 h
# male Fischer 344 rats [8] = test: Kidney histology; details: all doses evaluated, i.p., 24 h, vs corn oil
# [9] = all four doses (0.2, 0.4, 0.6, 1.0 mmol/kg) i.p., vs corn oil
# [10] = dose 0.2 (head mg/kg; text mmol/kg)
# [11] = dose 0.4 (head mg/kg; text mmol/kg)
# [12] = dose 0.6 (head mg/kg; text mmol/kg)
# [13] = dose 1.0 (head mg/kg; text mmol/kg)
# [14] = all doses (0.2–1.0 mmol/kg) i.p.
Structure (SMILES),Blood urea nitrogen (male Fischer 344 rats [2]; [10]),Blood urea nitrogen (male Fischer 344 rats [2]; [11]),Blood urea nitrogen (male Fischer 344 rats [2]; [12]),Blood urea nitrogen (male Fischer 344 rats [2]; [13]),Twenty-four-hour urine volume (male Fischer 344 rats [3]; [10]),Twenty-four-hour urine volume (male Fischer 344 rats [3]; [11]),Twenty-four-hour urine volume (male Fischer 344 rats [3]; [12]),Twenty-four-hour urine volume (male Fischer 344 rats [3]; [13]),Six-hour urine protein content (male Fischer 344 rats [4]; [10]),Six-hour urine protein content (male Fischer 344 rats [4]; [11]),Six-hour urine protein content (male Fischer 344 rats [4]; [12]),Six-hour urine protein content (male Fischer 344 rats [4]; [13]),Liver weight (male Fischer 344 rats [5]; [10]),Liver weight (male Fischer 344 rats [5]; [11]),Liver weight (male Fischer 344 rats [5]; [12]),Liver weight (male Fischer 344 rats [5]; [13]),Kidney weight (male Fischer 344 rats [6]; [10]),Kidney weight (male Fischer 344 rats [6]; [11]),Kidney weight (male Fischer 344 rats [6]; [12]),Kidney weight (male Fischer 344 rats [6]; [13]),also measured
"O=C1CSCN1c1cc(Cl)cc(Cl)c1 [4-DCTD, 3-(3,5-dichlorophenyl)-4-thiazolidinone]",26.8 ± 1.5^d mg/dl,25.6 ± 1.9^d mg/dl,"33.8 ± 2.4*,^e mg/dl","42.5 ± 1.1*,^f mg/dl","12.3 ± 1.7*,^c ml","11.3 ± 2.2*,^c ml","9.1 ± 1.6*,^c ml","12.3 ± 1.0*,^c ml",1.8 ± 0.3^c mg,1.6 ± 0.2^c mg,1.9 ± 0.4^c mg,2.8 ± 0.3^c mg,3.74 ± 0.23^c g/100% BW,3.96 ± 0.18^c g/100% BW,3.46 ± 0.09^c g/100% BW,3.81 ± 0.15^c g/100% BW,0.40 ± 0.01^d g/ 100% BW,0.37 ± 0.01^d g/ 100% BW,0.41 ± 0.01^d g/ 100% BW,0.42 ± 0.01^d g/ 100% BW,"Change in serum ALT levels (male Fischer 344 rats [1]; [9]): did not exhibit any significant changes in serum ALT levels; Diuresis / increase in urine volume (male Fischer 344 rats [3]; all doses, compared to controls, not dose-dependent): approximately three and a half-fold increase; Liver morphology (male Fischer 344 rats [7]; [14]): no changes in hepatic morphology; Kidney morphology (male Fischer 344 rats [8]): Minor swelling in the proximal tubular cells and slight dilation of collecting tubules"
"O=C1CSC(=O)N1c1ccc(Cl)cc1 [CPTD, 3-(4-chlorophenyl)-2,4-thiazolidinedione]","37.9 ± 0.6*,^c mg/dl","38.1 ± 1.7*,^c mg/dl","40.4 ± 2.7*,^c mg/dl","34.9 ± 1.8*,^c mg/dl",5.7 ± 1.5^b ml,"12.4 ± 4.6*,^c ml","16.6 ± 0.8*,^c ml","15.3 ± 2.7*,^c ml",2.0 ± 0.1^c mg,1.9 ± 0.1^c mg,2.0 ± 0.1^c mg,1.9 ± 0.1^c mg,3.62 ± 0.16^c g/100% BW,3.84 ± 0.07^c g/100% BW,"4.36 ± 0.06*,^d g/100% BW","3.98 ± 0.14*,^c g/100% BW",0.39 ± 0.02^b g/ 100% BW,0.41 ± 0.01^b g/ 100% BW,"0.46 ± 0.02*,^c g/ 100% BW","0.51 ± 0.04*,^c g/ 100% BW","serum alanine aminotransferase (ALT) activity (male Fischer 344 rats [1]; 1.0 mmol/kg i.p. in corn oil): 1622.5 ± 218.5 Sigma-Frankel units/ml; Change in serum ALT levels (male Fischer 344 rats [1]; [9]): significantly elevated; Increase in BUN levels (male Fischer 344 rats [2]; all dosages, compared to corn oil controls): 1.8 fold; Liver morphology (male Fischer 344 rats [7]; 1.0 mmol/kg i.p.): signs of liquefactive necrosis; Liver morphology (male Fischer 344 rats [7]; [14]): necrotic lesions with acute inflammatory response; Kidney morphology (male Fischer 344 rats [8]): minor swelling in some proximal tubular cells"
"CC1SC(=O)N(c2cc(Cl)cc(Cl)c2)C1=O (centres unmarked) [DPMT, 3-(3,5-dichlorophenyl)-5-methyl-2,4-thiazolidinedione]",19.6 ± 0.8^a mg/dl,24.6 ± 1.3^a mg/dl,19.8 ± 2.8^a mg/dl,20.0 ± 2.2^a mg/dl,6.5 ± 2.1^a ml,8.1 ± 1.7^a ml,"11.6 ± 1.0*,^a ml","10.8 ± 1.3*,^a ml",2.1 ± 0.7^a mg,1.6 ± 0.1^a mg,2.6 ± 0.8^a mg,2.5 ± 0.3^a mg,3.67 ± 0.31^a g/100% BW,3.81 ± 0.22^a g/100% BW,4.03 ± 0.27^a g/100% BW,4.10 ± 0.07^a g/100% BW,0.37 ± 0.01^a g/ 100% BW,0.38 ± 0.01^a g/ 100% BW,0.39 ± 0.01^a g/ 100% BW,0.41 ± 0.01^a g/ 100% BW,"serum alanine aminotransferase (ALT) activity (male Fischer 344 rats [1]; 0.6 mmol/kg i.p. in corn oil): 298.6 ± 176.1 Sigma-Frankel units/ml; serum alanine aminotransferase (ALT) activity (male Fischer 344 rats [1]; 1.0 mmol/kg i.p. in corn oil): 327.3 ± 102.9 Sigma-Frankel units/ml; Change in serum ALT levels (male Fischer 344 rats [1]; 0.6 and 1.0 mmol/kg i.p., vs two lower doses and corn oil): significant elevation in ALT concentrations; Increase in urine volume (male Fischer 344 rats [3]; 0.6 and 1.0 mmol/kg): about three-fold increase; Liver morphology (male Fischer 344 rats [7]; 0.6 mmol/kg i.p.): some damage near the centrilobular vein; Liver morphology (male Fischer 344 rats [7]; 1.0 mmol/kg i.p.): more damaged hepatocytes; Liver morphology (male Fischer 344 rats [7]; 0.2 and 0.4 mmol/kg i.p.): did not show any noticeable changes in liver morphology; Kidney morphology (male Fischer 344 rats [8]): did not exhibit obvious changes in kidney morphology"
"Cc1cc(C)cc(N2C(=O)CSC2=O)c1 [DMPT, 3-(3,5-dimethylphenyl)-2,4-thiazolidinedione]",18.1 ± 1.3^a mg/dl,22.2 ± 0.4^a mg/dl,"27.5 ± 1.4*,^b mg/dl","32.8 ± 3.1*,^b mg/dl","5.8 ± 1.4*,^a ml","9.9 ± 2.2*,^a ml","8.9 ± 1.8*,^a ml","11.3 ± 2.5*,^a ml",0.8 ± 0.3^a mg,1.4 ± 0.1^a mg,1.9 ± 0.2^a mg,"2.8 ± 0.4*,^b mg",3.47 ± 0.20^a g/100% BW,"4.10 ± 0.20*,^b g/100% BW","4.20 ± 0.05*,^b g/100% BW","3.97 ± 0.04*,^b g/100% BW",0.38 ± 0.01^a g/ 100% BW,0.40 ± 0.02^a g/ 100% BW,0.39 ± 0.00^a g/ 100% BW,0.38 ± 0.01^a g/ 100% BW,"serum alanine aminotransferase (ALT) activity (male Fischer 344 rats [1]; 1.0 mmol/kg i.p. in corn oil): 2071.9 ± 217.8 Sigma-Frankel units/ml; Change in serum ALT levels (male Fischer 344 rats [1]; all doses except the lowest (0.4, 0.6, 1.0 mmol/kg) i.p., vs corn oil): marked increases in serum ALT levels; Liver morphology (male Fischer 344 rats [7]; 0.2 and 0.4 mmol/kg i.p.): necrotic lesions with infiltration of inflammatory cells, neutrophils and lymphocytes; Liver morphology (male Fischer 344 rats [7]; 0.6 and 1.0 mmol/kg i.p.): necrotic lesions were widespread with many inflammatory cells seen around the lesions; Kidney morphology (male Fischer 344 rats [8]): normal"
"O=C1SCCN1c1cc(Cl)cc(Cl)c1 [2-DCTD, 3-(3,5-dichlorophenyl)-2-thiazolidinone]",23.0 ± 1.2^g mg/dl,22.3 ± 1.1^g mg/dl,23.9 ± 0.9^g mg/dl,24.4 ± 0.7^g mg/dl,6.0 ± 0.8^d ml,4.3 ± 0.3^d ml,5.0 ± 0.7^d ml,4.4 ± 1.3^d ml,1.6 ± 0.4^d mg,1.8 ± 0.1^d mg,2.2 ± 0.1^d mg,2.0 ± 0.1^d mg,3.96 ± 0.10^d g/100% BW,3.71 ± 0.11^d g/100% BW,3.74 ± 0.11^d g/100% BW,3.85 ± 0.15^d g/100% BW,0.39 ± 0.01^e g/ 100% BW,0.38 ± 0.01^e g/ 100% BW,0.40 ± 0.01^e g/ 100% BW,0.37 ± 0.01^e g/ 100% BW,"Change in serum ALT levels (male Fischer 344 rats [1]; [9]): did not exhibit any significant changes in serum ALT levels; Liver morphology (male Fischer 344 rats [7]; [14]): generally normal, although some nuclear condensation was evident; Kidney morphology (male Fischer 344 rats [8]): did not produce any noticeable changes in the kidney morphology"
"O=C1CSC(=O)N1c1cc(C(F)(F)F)cc(C(F)(F)F)c1 [DFMPT, 3-[3,5-bis(trifluoromethyl)phenyl]-2,4-thiazolidinedione]",19.6 ± 0.5^e mg/dl,21.7 ± 0.4^e mg/dl,22.5 ± 0.5^e mg/dl,"32.7 ± 1.4*,^f mg/dl","10.1 ± 1.3*,^f ml","14.1 ± 2.6*,^f,^g ml","20.0 ± 3.1*,^g,^h ml","23.5 ± 1.8*,^h ml",1.1 ± 0.3^e mg,1.6 ± 0.2^e mg,1.5 ± 0.2^e mg,1.0 ± 0.2^e mg,3.82 ± 0.12^f g/100% BW,3.59 ± 0.10^f g/100% BW,3.78 ± 0.07^f g/100% BW,"4.05 ± 0.15*,^f g/100% BW",0.40 ± 0.01^g g/ 100% BW,0.42 ± 0.03^g g/ 100% BW,0.30 ± 0.09^g g/ 100% BW,"0.48 ± 0.01*,^h g/ 100% BW",Change in serum ALT levels (male Fischer 344 rats [1]; [9]): normal; Liver morphology (male Fischer 344 rats [7]; [14]): did not show any noticeable changes in morphology; Kidney morphology (male Fischer 344 rats [8]): minor swelling in some proximal tubular cells
